Key:
[1] = system: TRAP-6-induced platelet aggregation; assay: TRAP-6-induced platelet aggregation in PRP (light transmittance aggregometry); format: cell-based, human; conditions: for IC50: Homo sapiens, TRAP-6 10 μM, PRP, 1 min pre-incubation, mean ± SD, three platelet preparations; for enhanced inhibitory activity with respect to DHA: TRAP-6 induced platelet aggregation
Procedure: (§1) The antiplatelet activity of DHA-apigenin, apigenin, DHA, and equimolar solution of apigenin/DHA was studied in platelet rich plasma (PRP) by light transmittance aggregometry (LTA) assay, as previously described. Briefly, PRP was prepared from peripheral venous blood of apparently healthy normolipidemic volunteers. The platelets of PRP were adjusted to a final concentration of 2.5 × 10^8 per Ml with homologous platelet-poor plasma (PPP). The PRP was then pre-incubated with each one of the compounds for 1 min before the initiation of aggregation. The final DMSO concentration in each assay was <0.5% (v/v). In the control experiments, the PRP was incubated with each one of the compounds for 5 min in order to evaluate whether each tested compound was a platelet activator. Platelet aggregation induced by ADP (10 Μm), AA (500 Μm), and TRAP-6 (10 Μm) was determined in aliquots of 0.5 Ml of PRP, at 37 °C under continuous stirring at 1200 rpm, in a Chronolog Lumi-Aggregometer (model 700 4-channel) equipped with the AggroLink software package. The maximal aggregation, achieved within 4 min after the addition of each agonist, was determined and expressed as a percentage of 100% light transmission calibrated for each specimen (maximal percentage of aggregation; MPA). Τhe inhibitory efficacy of each compound tested was also expressed as IC50 values (concentration that induces 50% inhibition of platelet aggregation). All aggregation studies were conducted within 3 h after blood was drawn. The inhibition of platelet aggregation (IPA) values induced by each compound was calculated using the […].

[2] = system: ADP-induced platelet aggregation; assay: ADP-induced platelet aggregation in PRP (light transmittance aggregometry); format: cell-based, human; conditions: for IC50: Homo sapiens, ADP 10 μM, PRP, 1 min pre-incubation, mean ± SD, three platelet preparations
Procedure: as §1

[3] = Human plasma stability assay (LC-MS/MS); format: in vitro ADME; conditions: 37 °C
Procedure: Liquid chromatography was performed using an Advance Ultra High Performance Liquid Chromatography (UHPLC) system (Bruker, Germany). The column oven was set at 40 °C. For the separation, a Kinetex C18 column 100 mm × 2.1 mm, 2.6 μm, with a 2.1 mm pro-guard column, was used (Phenomenex). The mobile phases were composed of water (LC-MS grade) with formic acid 0.1% (A) and MeOH (B). The gradient followed at a constant flow of […] was: initial phase (B) concentration 5%, increased to 100% within 1 min, then kept constant for 5.5 min, and reduced to 5% until the end of the run. […] The injection volume was 2 μL, while the auto-sampler temperature was 15 °C.
For the detection of the conjugate, the EVOQ Elite ER TQ (Bruker) mass spectrometer was operated in negative ionization electrospray mode (ESI) under multiple reaction monitoring (MRM). […] Optimum ESI conditions were determined as follows: spray voltage, 4500 V; heated probe gas flow, 50 units; heated probe temperature 350℃; cone gas flow, 20 units; cone temperature, 200 °C; nebulizer gas flow, 40 units. Total control of LC and MS, as well as data acquisition, were performed with MSWS software, Version 8.2.1 (Bruker). […]
The in vitro stability of the apigenin molecular hybrid was evaluated in human plasma (Ph was adjusted to 7.4) at 37 °C. […]

[4] = system: AA-induced platelet aggregation; assay: AA-induced platelet aggregation in PRP (light transmittance aggregometry); format: cell-based, human; conditions: for IC50: Homo sapiens, AA 500 μM, PRP, 1 min pre-incubation, mean ± SD, three platelet preparations
Procedure: as §1

[5] = Serum pharmacokinetics after oral administration in C57BL/6J mice; format: in vivo; conditions: oral 50 mg/kg in olive oil; for Tmax / half-life / AUC(0-t) / Vd/F / Cmax / AUC(0-inf): male, mouse; for AUC(0-t): 0-6 h, read-out: AUC0−t, Estimate (%CV); for Vd/F / Cl/F: normalized to fraction absorbed; for Vd/F: read-out: Vz/F; for Cmax: read-out: Cmax, Estimate (%CV); for AUC(0-inf): to be considered with caution (high extrapolation); for AUC % extrapolated: based on λz, 50 mg/kg
Procedure: For the detection of the conjugate, the EVOQ Elite ER TQ (Bruker) mass spectrometer was operated in negative ionization electrospray mode (ESI) under multiple reaction monitoring (MRM). […] Optimum ESI conditions were determined as follows: spray voltage, 4500 V; heated probe gas flow, 50 units; heated probe temperature 350℃; cone gas flow, 20 units; cone temperature, 200 °C; nebulizer gas flow, 40 units. Total control of LC and MS, as well as data acquisition, were performed with MSWS software, Version 8.2.1 (Bruker). For the pharmacokinetic studies, a Xevo-G2-XS-QtoF mass spectrometer, coupled to a Waters UPLC I-Class Binary Solvent Manager (Waters Corp., Milford, MA, USA) was used. The mobile phases were composed of water (LC-MS grade) with formic acid 0.1% (A), and acetonitrile (LC-MS grade) with formic acid 0.1% (B). A constant flow of […] was used, with an injection volume of 1 μL; the gradient was as follows: initial phase (B) concentration 20%, increased to 100% within 1.5 min, then kept constant for 1 min, and reduced to 20% until the end of the run (4 min total runtime). The MS conditions were as follows: the scan range was set at m/z 100–600, and the source voltage was 0.8 Kv in negative ionization electrospray mode (ESI). The source temperature was 550 °C, the flow of desolvation gas (N2) was set to 1000 L per hour, and the cone gas flow was set to 20 L per hour. For MS/MS, the collision energy ramp was set from 20 eV to 40 eV, and the declustering potential was 40 V. The column used was the Acquity UPLC® BEH C18 1.7 µm device. For the post processing and analysis of the acquisition data, UNIFY soFTware was used.
60 male 8-week-old C57BL/6J wild type mice, with mean weight equal to 23.5 ± 2.1 g were randomly divided in two groups (a, b) of 30 and each one received different treatment as follows: (a) the apigenin hybrid formulation and (b) the parent apigenin, dissolved in extra virgin olive oil, orally via the gavage technique at the dose of 50 mg/kg. Mice in each group were randomly further divided in 6 subgroups of five, each group representing one sampling time point (15, 30, 60, 120, 240, and 360 min). Animals were anaesthetized with sevoflurane, and sacrificed to collect blood samples via cardiac puncture, in non-heparinized Eppendorf ® Tubes, at the time point of interest after administration. Blood samples were centrifuged (10,000× g rpm, 15 min, 4 °C), and serum was collected, frozen and stored at −70 °C until further processing. In order to quench the reactions, 395 μL of MeOH were added to each sample, along with IS (5 μL of Rosmarinic acid). The samples were vortexed and centrifuged at 10,000× g for 10 min. Then, the supernatant was taken, filtered and transferred to vials for analysis, as described above.
The Phoenix^TM (www.certara.com)®. software was used for data analysis using non-compartmental PK analysis (NCA). More specifically, sparse sampling NCA was performed to determine basic serum PK parameters, namely AUC0−t, AUCinf, Cmax and Tmax, and to calculate the relative oral bioavailability of apigenin after apigenin hybrid formulation and native apigenin oral administration. To calculate the PK parameters and their standard errors (SE), the mean concentration curve is calculated and used in conjunction with the available subject information. The log-linear trapezoidal method was used to calculate AUC0−t and AUCinf, with extrapolation to infinity by dividing the last concentration by the terminal slope, λz (kel, estimated by linear regression analysis on the last three points of the log-transformed concentration vs. time plot).

[6] = ADP-induced platelet aggregation

SMILES	IC50 [1] [µM]	IC50 [2] [µM]	IC50 [4] [µM]	Tmax [5] [h]	half-life [5] [h]	AUC(0-t) [5] [ng·h/mL]	Vd/F [5] [L]	Cmax [5] [ng/mL]	AUC(0-inf) [5] [ng·h/mL]	Cl/F [5] [L/h]	further results
CC/C=C\C/C=C\C/C=C\C/C=C\C/C=C\C/C=C\CCC(=O)Oc1ccc(-c2cc(=O)c3c(O)cc(O)cc3o2)cc1 [4′-DHA-apigenin hybrid, 4′-DHA-apigenin]	52 ± 12	362 ± 20	353 ± 36	2	17.4	91.7	66.5	17.8	471	2.65	enhancement with respect to native apigenin ([1]; TRAP-6): 2 fold; enhanced inhibitory activity with respect to DHA [1]: more than 12 fold; enhanced inhibitory activity with respect to DHA ([1]; listed as 4′-DHA-apigenin): 12 fold; enhanced inhibitory activity with respect to DHA [2, 6]: ~3 fold; enhanced inhibitory activity with respect to apigenin [2, 6]: ~2 fold; parent compound still present ([3]; after 30 min of incubation): 17.3%; half-life at 5 µM ([3]; pH 7.4, read-out: t1/2 in human plasma): ~0.217 h; enhanced inhibitory activity with respect to apigenin ([4]; AA-induced platelet aggregation): 2 fold; AUC % extrapolated ([5]; listed as 4′-DHA-Apigenin): 80%; AUC % extrapolated ([5]; listed as 4′-DHA-apigenin): 80.5%
O=c1cc(-c2ccc(O)cc2)oc2cc(O)cc(O)c12 [Apigenin, apigenin]	56 ± 8	607 ± 35	850 ± 45	2	3.44	35	106	10.8	58.8	21.3	AUC % extrapolated [5]: 40%; AUC % extrapolated ([5]; listed as native apigenin): 40.5%
CC/C=C\C/C=C\C/C=C\C/C=C\C/C=C\C/C=C\CCC(=O)O [DHA, Cis-4,7,10,13,16,19-Docosahexanoic acid, reference compound]	680 ± 42	920 ± 53	130 ± 18	–	–	–	–	–	–	–	–

Source: article PMC10005222, “Development of a Novel Apigenin Dosage form as a Substitute for the Modern Triple Antithrombotic Regimen” (Molecules, 2023)
